This test has as its target T1, recombinant human DPP-1 (Cathepsin C) (Homo sapiens, UniProt P53634).
T1 construct: made in house
Kind of test: DPP-1 Inhibition Assay (In Vitro), fluorogenic substrate GR-AMC. The class given is biochemical. As to conditions: 0.15 nM DPP-1, 10 uM GR-AMC, pH 7.0, room temperature; average value where tested multiple times. The method, then:
Test compounds were assessed for DPP-1 (Cathepsin C) inhibitory activity using a fluorogenic substrate, GR-AMC (Glycine-Arginine-amino-4-methylcoumarin, Bachem, I-1215). The amount of amino-methylcoumarin released is proportional to the DPP-1 activity, and the reaction is monitored kinetically with a Molecular Devices plate reader using black 96-well plates.
All compounds were tested under room temperature conditions. The assay buffer consisted of 50 mM HEPES, pH 7.0, 100 mM NaCl, 2 mM glutathione (GSH), and 0.002% TWEEN 20. GSH and TWEEN 20 were added to the buffer fresh daily. Just prior to use, an in-house preparation of recombinant human DPP-1 (240 μM stock, MW 49.6 kD) was diluted 600-fold in assay buffer containing fresh 2 mM dithiothreitol (DTT) to activate the enzyme, then diluted into assay buffer (without DTT) 133-fold for a DPP-1 working solution of 3 nM. Test compounds were diluted in DMSO for 20× their final assay concentrations.
Additions to a 96-well black Costar 3915 plates were as follows: 90 μL of 11 μM GR-AMC, 5 μL test compound (followed by mixing), and 5 μL 3 nM DPP-1 to start the reaction. Fluorescent reactions were monitored kinetically at 360 nm excitation, 440 nm emission on a Molecular Devices Spectramax XPS reader. The Softmax Pro software of the reader determined the initial velocity of the selected data (the first 3-5 minutes of the reaction), and the best linear regression fit of the initial kinetic data. Final assay conditions were 0.15 nM DPP-1, 10 uM GR-AMC, 50 mM HEPES, pH 7.0, 100 mM NaCl, 2 mM GSH, 0.002% TWEEN 20, 1 uM DTT, 5.0% DMSO. Initial velocity rates were plotted vs. test compound concentration by use of a four-parameter logistics equation (nonlinear regression, sigmoidal dose-response (variable slope), with fixed Hill (1.0) using GraphPad Prism® software for determination of DPP-1 IC50. Within-run assay coefficient of variation (CV) was generally <10%; between-run CV <20%.
Representative compounds of the present invention were tested according to the procedure as described above, with results as listed in Table 5, below.
T1 sequence (P53634 25-463): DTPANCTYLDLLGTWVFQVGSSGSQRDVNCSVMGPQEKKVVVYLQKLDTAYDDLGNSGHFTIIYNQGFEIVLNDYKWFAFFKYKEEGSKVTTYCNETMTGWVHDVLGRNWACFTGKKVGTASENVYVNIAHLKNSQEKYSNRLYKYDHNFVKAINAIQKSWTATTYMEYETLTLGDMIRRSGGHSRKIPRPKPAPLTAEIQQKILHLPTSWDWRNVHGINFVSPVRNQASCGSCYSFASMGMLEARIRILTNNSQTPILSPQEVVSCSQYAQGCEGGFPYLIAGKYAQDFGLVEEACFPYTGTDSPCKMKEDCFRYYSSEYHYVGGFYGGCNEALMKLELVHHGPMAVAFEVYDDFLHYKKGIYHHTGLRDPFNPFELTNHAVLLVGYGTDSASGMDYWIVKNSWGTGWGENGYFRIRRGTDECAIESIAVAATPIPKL
For `CC[C@H](N)C(=O)N1CCC(C(=O)NC2CCCCC2)(c2ccccc2)CC1` [Compound 70], the half-inhibitory concentration (IC50) (as a rule, the concentration at which inhibition is half-maximal) is 9400 nM.
In the case of `N[C@@H](Cc1cccs1)C(=O)N1CCC(Cc2ccncc2)(C(=O)NC2CCCCC2)CC1` [Compound 71], the IC50 turned out to be 37 nM.
Turning to `CC[C@H](N)C(=O)N1CCC(Cc2ccncc2)(C(=O)NC2CCCCC2)CC1` [Compound 72], the IC50 amounted to 5000 nM.
Under `CSCC[C@H](N)C(=O)N1CCC(Cc2ccc(I)cc2)(C(=O)NC2CCCCC2)CC1` [Compound 73] stands 250 nM; under `N[C@@H](Cc1c[nH]cn1)C(=O)N1CCC(C(=O)NC2CCCCC2)(c2ccccc2)CC1` [Compound 75], 2800 nM; under `CC[C@H](N)C(=O)N1CCC(Cc2ccc(I)cc2)(C(=O)NC2CCCCC2)CC1` [Compound 77], 2300 nM.
On to `N[C@@H](Cc1ccc(Cl)s1)C(=O)N1CCC(Cc2ccc(-c3ccccc3)cc2)(C(=O)NC2CCCCC2)CC1` [Compound 78], for which the IC50 came out at 5600 nM.
The result for `N[C@@H](Cc1c[nH]cn1)C(=O)N1CCC(Cc2ccc([N+](=O)[O-])cc2)(C(=O)NC2CCCCC2)CC1` [Compound 79] reads 620 nM.
The result for `N[C@@H](Cc1cccs1)C(=O)N1CCC(Cc2ccc([N+](=O)[O-])cc2)(C(=O)NC2CCCCC2)CC1` [Compound 81] reads 24 nM; that for `N#Cc1ccccc1CC1(C(=O)NC2CCCCC2)CCN(C(=O)[C@@H](N)Cc2cccs2)CC1` [Compound 82], 110 nM; that for `CC[C@H](N)C(=O)N1CCC(Cc2cccc(OC)c2)(C(=O)NC2CCCCC2)CC1` [Compound 83], 9500 nM.
Consider `COc1cccc(CC2(C(=O)NC3CCCCC3)CCN(C(=O)[C@@H](N)Cc3cccs3)CC2)c1` [Compound 84], for which the IC50 was determined as 56 nM.
Consider `N[C@@H](Cc1cccs1)C(=O)N1CCC(C(=O)N[C@H]2CC[C@H](O)CC2)(c2ccccc2)CC1` [Compound 85], for which the IC50 was determined as 110 nM.
Under `N[C@@H](Cc1cccs1)C(=O)N1CCC(Cc2ccccc2)(C(=O)NC2CCCCC2)CC1` [Compound 86] stands 40 nM; under `CS(=O)(=O)Nc1ccc(CC2(C(=O)NC3CCCCC3)CCN(C(=O)[C@@H](N)Cc3cccs3)CC2)cc1` [Compound 88], 31 nM; under `N[C@@H](Cc1cccs1)C(=O)N1CCC(Cc2ccc(NS(=O)(=O)C(F)(F)F)cc2)(C(=O)NC2CCCCC2)CC1` [Compound 89], 150 nM.
Turning to `N[C@@H](Cc1cccs1)C(=O)N1CCC(C(=O)NCC2CCCCC2)(c2ccccc2)CC1` [Compound 91], the IC50 was 23 nM.
As to `N[C@@H](Cc1cc(Br)cs1)C(=O)N1CCC(Cc2ccc(I)cc2)(C(=O)NC2CCCCC2)CC1` [Compound 92], the IC50 was determined as 5600 nM.
Under `Nc1ccc(CC2(C(=O)NC3CCCCC3)CCN(C(=O)[C@@H](N)Cc3cccs3)CC2)cc1` [Compound 95] stands 63 nM; under `N[C@@H](Cc1cccs1)C(=O)N1CCC(Cc2cccc(I)c2)(C(=O)NC2CCCCC2)CC1` [Compound 96], 84 nM.
The result for `N[C@@H](Cc1cccs1)C(=O)N1CCC(Cc2cccc(-c3cncnc3)c2)(C(=O)NC2CCCCC2)CC1` [Compound 97] reads 39 nM.
Consider `N[C@@H](Cc1cccs1)C(=O)N1CCC(Cc2cccc(-c3ccc(O)nc3)c2)(C(=O)NC2CCCCC2)CC1` [Compound 98], for which the IC50 amounted to 45 nM.
Under `N#Cc1ccc(-c2ccc(CC3(C(=O)NC4CCCCC4)CCN(C(=O)[C@@H](N)Cc4cccs4)CC3)cc2)cc1` [Compound 99] stands 46 nM; under `N[C@@H](Cc1cccs1)C(=O)N1CCC(Cc2cccc(-c3ccc(C(F)(F)F)cc3)c2)(C(=O)NC2CCCCC2)CC1` [Compound 100], 120 nM; under `N[C@@H](Cc1cccs1)C(=O)N1CCC(Cc2cccc(-c3cccc(C(=O)O)c3)c2)(C(=O)NC2CCCCC2)CC1` [Compound 101], 140 nM.
With `N[C@@H](Cc1cccs1)C(=O)N1CCC(Cc2cccc(-c3ccc(C(=O)O)cc3)c2)(C(=O)NC2CCCCC2)CC1` [Compound 102], the IC50 turned out to be 190 nM.

These data come from US8686152B2, “4,4-disubstituted piperidine derivatives useful as inhibitors of dipeptidyl peptidase-1 (DPP-1)” (Janssen Pharmaceutica NV, priority 2010, dated 2014).
